Laboratory results reported in the supplement of paper PMC10307832.

How the values were obtained:
Test in all cases: relative viability (nuclei count vs DMSO), 5 days (fraction); higher = more cells survive
[1] = compound: CN(c1ncccc1CNc1nc(Nc2ccc3c(c2)CC(=O)N3)ncc1C(F)(F)F)S(C)(=O)=O + CC(C)C[C@H](NC(=O)[C@H](Cc1ccccc1)NC(=O)c1cnccn1)B(O)O [Bortezomib] (partner 0.002 µM)
Outline: (§1)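 Relative viability equals treated-well nuclei counts divided by vehicle-well nuclei counts. Counts came from 4× images of lung cancer cell lines grown in 1536-well plates for 5 days after pin-tool dosing on the day after seeding. Dosing used one drug alone or a fixed anchor-drug dose plus five library-drug doses (not always all listed) in √10 steps, and values are medians of duplicate plates.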

[2] = compound: CN(c1ncccc1CNc1nc(Nc2ccc3c(c2)CC(=O)N3)ncc1C(F)(F)F)S(C)(=O)=O + CC(=O)Nc1cccc(-n2c(=O)n(C3CC3)c(=O)c3c(Nc4ccc(I)cc4F)n(C)c(=O)c(C)c32)c1 [Trametinib] (partner 0.02 µM)
Outline: as §1

[3] = compound: CN(c1ncccc1CNc1nc(Nc2ccc3c(c2)CC(=O)N3)ncc1C(F)(F)F)S(C)(=O)=O + O=C(c1cc(Cc2n[nH]c(=O)c3ccccc23)ccc1F)N1CCN(C(=O)C2CC2)CC1 [Olaparib] (partner 8 µM)
Outline: as §1

[4] = compound: CN(c1ncccc1CNc1nc(Nc2ccc3c(c2)CC(=O)N3)ncc1C(F)(F)F)S(C)(=O)=O + CS(=O)(=O)N1CCN(Cc2cc3nc(-c4cccc5[nH]ncc45)nc(N4CCOCC4)c3s2)CC1 [Pictilisib] (partner 1 µM)
Outline: as §1

Row | Cell Line | relative viability ([1]; first compound 0.01 µM) | relative viability ([1]; first compound 0.03162 µM) | relative viability ([1]; first compound 0.1 µM) | relative viability ([1]; first compound 0.3162 µM) | relative viability ([1]; first compound 1 µM) | relative viability ([2]; first compound 0.01 µM) | relative viability ([2]; first compound 0.03162 µM) | relative viability ([2]; first compound 0.1 µM) | relative viability ([2]; first compound 0.3162 µM) | relative viability ([2]; first compound 1 µM) | relative viability ([3]; first compound 0.01 µM) | relative viability ([3]; first compound 0.03162 µM) | relative viability ([3]; first compound 0.1 µM) | relative viability ([3]; first compound 0.3162 µM) | relative viability ([3]; first compound 1 µM) | relative viability ([4]; first compound 0.01 µM) | relative viability ([4]; first compound 0.03162 µM) | relative viability ([4]; first compound 0.1 µM) | relative viability ([4]; first compound 0.3162 µM) | relative viability ([4]; first compound 1 µM)
1 | NCI-H838 | 0.767 | 0.923 | 0.88 | 0.942 | 0.598 | 0.534 | 0.695 | 0.501 | 0.421 | 0.329 | 0.736 | 0.809 | 0.725 | 0.55 | 0.43 | 0.431 | 0.482 | 0.471 | 0.448 | 0.395
2 | NCI-H1355 | 1.29 | 1.28 | 1.14 | 1.14 | 1.07 | 0.361 | 0.41 | 0.439 | 0.384 | 0.357 | 0.7 | 0.784 | 0.713 | 0.691 | 0.669 | 0.399 | 0.474 | 0.346 | 0.432 | 0.381
3 | NCI-H1437 | 0.612 | 0.462 | 0.527 | 0.514 | 0.405 | 0.529 | 0.575 | 0.415 | 0.356 | 0.395 | 0.63 | 0.633 | 0.59 | 0.583 | 0.466 | 0.424 | 0.468 | 0.557 | 0.41 | 0.546
4 | NCI-H1650 | 0.229 | 0.196 | 0.232 |  | 0.192 | 0.647 | 0.587 | 0.582 | 0.57 | 0.483 | 0.753 | 0.783 | 0.784 | 0.672 | 0.675 | 0.557 | 0.676 | 0.609 |  | 0.581
5 | NCI-H1651 | 0.936 | 1.04 | 0.939 | 0.885 | 0.9 | 0.89 | 0.837 | 0.816 | 0.826 | 0.818 | 0.187 | 0.172 | 0.204 | 0.183 | 0.197 | 0.523 | 0.617 | 0.601 | 0.596 | 0.546
6 | NCI-H1666 | 0.887 | 0.678 | 0.668 | 0.708 | 0.589 | 0.902 | 0.853 | 0.762 | 0.838 | 0.658 | 0.671 | 0.755 | 0.702 | 0.744 | 0.706 | 0.549 | 0.373 | 0.404 | 0.532 | 0.404
7 | NCI-H1734 | 1.06 | 1.1 | 0.996 | 0.857 | 0.949 | 0.602 | 0.661 | 0.663 | 0.719 | 0.539 | 0.586 | 0.677 | 0.614 | 0.594 | 0.596 | 0.418 | 0.555 | 0.454 | 0.468 | 0.475
